Four compounds from patent US5192791A, “Fused ring heterocycles and pharmaceutical compositions containing same” (Biofor, Ltd., priority 1990, dated 1993) can be followed below.

By ED50 is commonly meant the dose that gives a 50% effect, or the effect in half of the subjects. One may read the % Inhibition as how much of the control response was suppressed.

Structures are written as SMILES.

One assay concerns yeast-induced fever. In words: Antipyretic Evaluation (yeast-induced fever in rats). It is filed as in vivo, male Sprague-Dawley rats. As to conditions: 300 mg/kg, oral, 19 hours after yeast; temperature one hour after dosing. Here is the method:
Antipyretic: This activity was evaluated by creating a yeast-induced fever in rats according to a modified method of the procedure described by Loux et al in "Toxicology and Applied Pharmacology", Vol. 22: page 672 (1972). In this assay rats injected with yeast in distilled water were dosed with test compounds, aspirin (positive control) and a vehicle (negative control) and the observed differences in body temperature were analyzed statistically.
Antipyretic activity was evaluated using a modification of the test described by Loux et al, in Toxicology and Applied Pharmacology, 22:672 (1972), that is, yeast-induced fever in rats. Each test group consisted of ten male Sprague-Dawley rats (Charles River Laboratories), weighing 180-225 grams each. Eighteen hours prior to compound administration the rats were weighed and body temperatures were recorded. Food was removed with water available ad libitum. […]
Test compounds suspended in 0.25% methylcellulose (0.25% MC) or olive oil were administered orally by gavage nineteen hours following the yeast injection. Body temperatures were taken and recorded one hour after compound administration. […] The mean temperature of the compound-treated groups, positive control group (Aspirin) and negative control group (vehicle) were calculated at 18 hours and 20 hours. The data was analyzed statistically using a paired-samples Student's t-Test.

The test system of assay [1] is Mycobacterium butyricum adjuvant arthritis, hind paw edema. In words: Adjuvant Arthritis Assay: Developing (hind paw edema, rats). As to conditions: 96 h, dosed once daily for 4 days in 0.25% methylcellulose, paw edema on fifth day. It is filed as in vivo, female Lewis rats. Here is the method: Anti-Inflammatory: This activity was evaluated via a modification of the Adjuvant Arthritis Assay (AA) described by S. […] This assay measures the ability of the test compound to antagonize local edema, a characteristic of the inflammatory response. […] The left and right rear paws of female Lewis rats (Charles River Laboratories) weighing 160-180 grams each were measured by mercury displacement prior to injection (Day Zero). Adjuvant arthritis was induced in this rat colony by subcutaneous injection of Mycobacterium butyricum (0.75 mg in 0.1 ml light mineral oil, Fisher) using an automated Cornwall syringe. On days 11-15 post-adjuvant the injected animals with 0.25 to 0.75 ml. paw edema were selected and distributed evenly, according to edema size, into control and experimental groups of ten rats each. Vehicle control and drug treatments were assigned to the groups at random. The assay was performed using a variable dose level for each test compound per kilogram per day in 0.25% methylcellulose vehicle. All animals were dosed once daily for 4 days and on the fifth day both hind paw volumes were again measured using mercury displacement. The hind paw edema was determined for each rat by subtracting the hind paw volume measured on Day Zero from the hind paw volume measured on the fifth day of the study. Group means were determined and the drug effect was calculated as percent inhibition of the hind paw edema according to the following equation: [formula] […] The known anti-inflammatory NAPROXEN was also tested for comparison purposes.

The test system is the same in assay [2]. In words: Adjuvant Arthritis Assay; Immunomodulatory. It is filed as in vivo, Lewis female rats. As to conditions: 50 mg/kg, oral, Day 5 to 9; edema on Day 15. The method, then:
Immunomodulatory: This activity was determined by using a Modified Adjuvant Assay procedure in which female rats were injected with Mycobacterium butyricum to induce hind paw edema. The test compounds were administered orally and the difference in volume between dosed and non-dosed paws was determined.
Lewis female rats were injected in the tail subcutaneously with Mycobacterium butyricum (0.75 mg in 0.1 ml light mineral oil, Fisher) on Day Zero. Prior to injection the volumes of the left and right rear paws were measured by mercury displacement. All rats were dosed orally with vehicle or test compounds on Day 5 to 9 inclusive. The volume of both hind paws were determined on Day 15 and the percent inhibitions were calculated based upon average edema on Day 15 relative to the edema mean in the control group.

As to `CC(=O)Oc1ccccc1C(=O)O` [Aspirin, reference compound], the “Change in Temperature, 18-20 Hour Period” value with yeast-induced fever is -2.05 °C.

Take `CC(C)(C)c1cc(N2CCCC2=O)cc(C(C)(C)C)c1O` [Example 1, 1-(3,5-di-tert-butyl-4-hydroxyphenyl)pyrrolidin-2-one]: in assay [1], the ED50 was determined as 21 mg/kg. The “Change in Temperature, 18-20 Hour Period” value with yeast-induced fever is -1.55 °C. The “% Inhibition” value in assay [2] came out at 39%.

For the compound `CC(C)(C)c1cc(N2CCCCC2=O)cc(C(C)(C)C)c1O` [Example 2, 1-(3,5-di-tert-butyl-4-hydroxyphenyl)piperidin-2-one], in assay [1], the 50% effective dose (ED50) came to 34 mg/kg.

Turning to `COc1ccc2cc([C@H](C)C(=O)O)ccc2c1` [NAPROXEN, reference compound], the ED50 in assay [1] amounted to 28 mg/kg.
